Results on 12 molecules are retold here after PMC3281842, “Crystal Structure of TDRD3 and Methyl-Arginine Binding Characterization of TDRD3, SMN and SPF30” (PLoS ONE, 2012).

As usually defined, the Kd is the free concentration of one partner at which half of the binding sites on the other are occupied at equilibrium, for simple one-to-one binding.

The target in test [1] is T1, TDRD3 (aa 520–633) (Homo sapiens, UniProt Q9H7E2).
T1 construct: TDRD3 (aa 520–633); His tag (pET28-MHL) (N); made in house; host or cells: Escherichia coli BL21 (DE3)
T1 sequence (Q9H7E2 520-633): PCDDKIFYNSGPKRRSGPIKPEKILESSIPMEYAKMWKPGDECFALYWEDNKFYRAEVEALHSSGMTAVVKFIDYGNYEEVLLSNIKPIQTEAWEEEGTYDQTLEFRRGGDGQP
In words: ITC (Isothermal Titration Calorimetry) binding, TDRD3. The following applies: 20 mM Tris pH 8.0, 200 mM NaCl, 25°C, one-site binding model, NB = no detectable binding. On the procedure: Figure 2 Preferential binding of TDRD3 to asymmetrical dimethylated H3R17 peptide over symmetrical dimethylated H3R17 peptide. The ITC measurements were done in 20 mM Tris pH 8.0 and 200 mM NaCl using the same TDRD3 construct as used in Table 1. The measurements were taken at 25°C. Binding isotherms were plotted and analyzed using Origin Software (MicroCal Inc.). The ITC measurements were fit to a one-site binding model. (A) Histone H3R17me2a peptide (TGGKAPRme2aKQLATKA). (B) Histone H3R17me2s peptide (TGGKAPRme2sKQLATKA). (C) PIWIL1_R4me2a peptide (TGRme2aARARA). TEXT PRINTED IN THE PICTURE: (A) H3R17me2a: Kd>1000μM | (B) H3R17me2s: No binding | (C) PIWIL1_R4me2a: Kd>500μM
The protocol for ITC (Isothermal Titration Calorimetry) was carried out as described before. The ITC buffer used in this study is 20 mM Tris pH 8.0 and 200 mM NaCl. The measurements were taken at 25°C. Binding isotherms were plotted and analyzed using Origin Software (MicroCal Inc.). The ITC measurements were fit to a one-site binding model.
(In general: Isothermal titration calorimetry measures the heat released or taken up as one component is titrated into another.)

Test [2] addresses T2, SMN (aa 80–170) (Homo sapiens, UniProt Q16637).
T2 construct: SMN (aa 80–170); His tag (pET28-MHL) (N); made in house; host or cells: Escherichia coli BL21 (DE3)
The experiment in a line: Fluorescence polarization binding assay, SMN Tudor domain. The note with it: for Kd: fluorescence polarization, fluorescein-labeled peptide, 20 mM Tris pH 7.5, 50 mM NaCl, 1 mM DTT, 0.01% Triton X-100, 25°C, average of three independent measurements, NB = no detectable binding. The protocol: (§1) Figure 1 Fluorescence polarization binding curves of TDRD3 (aa 520–633), SMN (aa 80–170), and SPF30 (aa 65–150) to the PIWIL1-R4 peptides. The buffer used in the fluorescence polarization assay is 20 mM Tris pH 7.5, 50 mM NaCl, 1 mM DTT and 0.01% Triton X-100. The data are measured at 25°C and corrected for background by subtracting the free-labeled peptide background. The Kd values are the average of three independent measurements.
(§2) All the regular and fluorescent peptides used this study were synthesized by Tufts University Core Services (Boston, USA). The fluorescence polarization assay was carried out as described before. The buffer used in the fluorescence polarization assay is 20 mM Tris pH 7.5, 50 mM NaCl, 1 mM DTT and 0.01% Triton X-100. An excitation wavelength of 485 nm and an emission wavelength of 528 nm are used. The data are measured at 25°C and corrected for background by subtracting the free-labeled peptide background. The data were collected by the Synergy 2 (BioTec, USA) fluorescence polarization program and were fit to one-site binding model using Origin 7 (MicroCal, Inc.). The Kd values are the average of three independent measurements.
On the technique in general: In fluorescence polarisation assays a small probe gives low polarisation when free and higher when bound to something large.

The target of test [3] is T3, SPF30 (aa 65–150) (Homo sapiens, UniProt O75940).
T3 construct: SPF30 (aa 65–150); His tag (pET28-MHL) (N); made in house; host or cells: Escherichia coli BL21 (DE3)
T3 sequence (O75940 65-150): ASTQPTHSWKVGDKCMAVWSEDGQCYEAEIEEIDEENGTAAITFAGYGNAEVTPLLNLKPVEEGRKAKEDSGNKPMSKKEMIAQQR
The experiment in a line: Fluorescence polarization binding assay, SPF30 Tudor domain. The note with it: fluorescein-labeled peptide, 20 mM Tris pH 7.5, 50 mM NaCl, 1 mM DTT, 0.01% Triton X-100, 25°C, average of three independent measurements, NB = no detectable binding. On the procedure:
as §1, §2

Test [4] deals with T4, SND1 (aa 650–910) (Homo sapiens, UniProt Q7KZF4).
T4 construct: SND1 (aa 650–910)
T4 sequence (Q7KZF4 650-910): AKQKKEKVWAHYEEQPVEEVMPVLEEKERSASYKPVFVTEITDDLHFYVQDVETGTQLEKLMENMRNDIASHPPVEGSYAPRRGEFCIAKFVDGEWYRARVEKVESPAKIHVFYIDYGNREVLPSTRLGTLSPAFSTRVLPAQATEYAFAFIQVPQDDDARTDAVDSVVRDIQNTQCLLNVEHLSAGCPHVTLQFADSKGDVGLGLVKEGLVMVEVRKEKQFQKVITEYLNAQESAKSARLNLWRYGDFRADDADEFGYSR
In words: Fluorescence polarization binding assay, SND1 extended Tudor domain. The note with it: values without asterisk in Table 1, NB = no detectable binding. The protocol: as §2

For test [5], the target named is T1, TDRD3 (aa 520–633). The experiment in a line: Fluorescence polarization binding assay, TDRD3 Tudor domain. The note with it: fluorescein-labeled peptide, 20 mM Tris pH 7.5, 50 mM NaCl, 1 mM DTT, 0.01% Triton X-100, 25°C, average of three independent measurements, NB = no detectable binding. The protocol: TDRD3 contains a Tudor domain at its C-terminus. […] In order to characterize its binding specificity and affinity quantitatively, we performed a series of fluorescence polarization (FP) binding assays using our fluorescein-labeled peptide library, which includes GAR motif-containing SmD3 and PIWIL1 peptides, PGM motif-containing SmB peptides, and histone H3R2 peptides (Table 1 and Fig. 1). A low salt concentration (50 mM NaCl) is used in the FP binding assay due to the weak binding affinities of these proteins to their ligands. At this salt concentration, the binding affinities are increased about four times compared to the data measured at 200 mM NaCl (Fig. S1), which will save the reagents and make the Kd measurement more reliable. […] Therefore, TDRD3 has a different binding selectivity than SND1, which we have previously established that the extended Tudor domain of SND1 preferentially binds symmetrically dimethylated arginine PIWIL1 peptides. Similar to SND1, the binding selectivity of TDRD3 among these three different arginine methylation marks is about 2 to 4-fold (Table 1).
as §1, §2

The target of test [6] is T4, SND1 (aa 650–910). The note with it: values marked * in Table 1; NB = no detectable binding; ref Liu K et al, PNAS, 2010 [20]; cited from earlier work. The source says: Table 1 Binding affinities of TDRD3 (aa 520–633), SMN (aa 80–170), and SPF30 (aa 65–150) to different methyl-arginine peptides in comparison with SND1 (aa 650–910). | column: Kd (µM) / SND1 (aa 650–910)

Like-named read-outs stand apart in the source and are kept apart here. Square brackets hold non-standard residues; d marks the D form. Peptide text beside a SMILES is read from it. Arg(Me2a) = CN(C)C(=N)NCCC[C@H](N)C(=O)O; Arg(Me2s) = CN=C(NC)NCCC[C@H](N)C(=O)O; Arg(Me) = CNC(=N)NCCC[C@H](N)C(=O)O

T2 sequence (Q16637 80-170): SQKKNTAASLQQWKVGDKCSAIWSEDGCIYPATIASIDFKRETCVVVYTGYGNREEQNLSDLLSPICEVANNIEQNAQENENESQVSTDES

On to `CC(C)C[C@H](NC(=O)[C@H](CCC(N)=O)NC(=O)[C@H](CCCCN)NC(=O)[C@H](CCCNC(=N)N(C)C)NC(=O)[C@@H]1CCCN1C(=O)[C@H](C)NC(=O)[C@H](CCCCN)NC(=O)CNC(=O)CNC(=O)[C@@H](N)[C@@H](C)O)C(=O)N[C@@H](C)C(=O)N[C@H](C(=O)N[C@@H](CCCCN)C(=O)N[C@@H](C)C(=O)O)[C@@H](C)O` [H3R17me2a], for which, in test [1], the Kd was > 1000 µM.
In the case of `CN=C(NC)NCCC[C@H](NC(=O)[C@@H]1CCCN1C(=O)[C@H](C)NC(=O)[C@H](CCCCN)NC(=O)CNC(=O)CNC(=O)[C@@H](N)[C@@H](C)O)C(=O)N[C@@H](CCCCN)C(=O)N[C@@H](CCC(N)=O)C(=O)N[C@@H](CC(C)C)C(=O)N[C@@H](C)C(=O)N[C@H](C(=O)N[C@@H](CCCCN)C(=O)N[C@@H](C)C(=O)O)[C@@H](C)O` [H3R17me2s], in test [1], the Kd was > 500 µM and the “Kd TDRD3 (aa 520–633) by ITC” value was “No binding”.
Take `CN=C(NC)NCCC[C@H](NC(=O)CNC(=O)[C@@H]1CCCN1C(=O)[C@@H]1CCCN1C(=O)[C@@H](N)Cc1ccc(O)cc1)C(=O)NCC(=O)NCC(=O)N1CCC[C@H]1C(=O)N1CCC[C@H]1C(=O)N1CCC[C@H]1C(=O)O` [PGM(SmB165SD)] (H-YPPG[Arg(Me2s)]GGPPP-OH; N-terminus and C-terminus assumed): the Kd in test [2] was > 300 µM; in test [3], > 500 µM; in test [4], > 500 µM.
Take `CN=C(NC)NCCC[C@H](NC(=O)[C@H](CCSC)NC(=O)CNC(=O)[C@@H]1CCCN1C(=O)[C@@H]1CCCN1)C(=O)N1CCC[C@H]1C(=O)N1CCC[C@H]1C(=O)N1CCC[C@H]1C(=O)N1CCC[C@H]1C(=O)NCC(=O)O` [PGM(SmB214SD)] (H-PPGM[Arg(Me2s)]PPPPG-OH; N-terminus and C-terminus assumed): the Kd in test [2] was > 400 µM; in test [3], > 500 µM; in test [4] it was > 500 µM.
Regarding `CN=C(NC)NCCC[C@H](NC(=O)[C@H](CCSC)NC(=O)CNC(=O)[C@@H]1CCCN1C(=O)[C@@H]1CCCN1)C(=O)NCC(=O)N1CCC[C@H]1C(=O)N1CCC[C@H]1C(=O)N1CCC[C@H]1C(=O)O` [PGM(SmB221SD)] (H-PPGM[Arg(Me2s)]GPPP-OH; N-terminus and C-terminus assumed), the Kd in test [2], in test [3] and in test [4] was > 500 µM each time.
Take `CNC(=N)NCCC[C@H](NC(=O)CNC(=O)[C@@H](N)[C@@H](C)O)C(=O)N[C@@H](C)C(=O)N[C@@H](CCCNC(=N)N)C(=O)N[C@@H](C)C(=O)N[C@@H](CCCNC(=N)N)C(=O)N[C@@H](C)C(=O)N[C@@H](CCCNC(=N)N)C(=O)NCC(=O)N[C@@H](CCCNC(=N)N)C(=O)N[C@@H](C)C(=O)N[C@@H](CCCNC(=N)N)C(=O)NCC(=O)N[C@@H](CCC(N)=O)C(=O)N[C@@H](CCC(=O)O)C(=O)O` [PIWIL1-R4me1] (H-TG[Arg(Me)]ARARARGRARGQE-OH; N-terminus and C-terminus assumed): the Kd in test [2] was > 150 µM; in test [3], > 500 µM; in test [5], > 500 µM. In addition, the “binding affinity to SMN, times weaker than for PIWIL1_R4me2s” value in test [2] (ratio of FP Kd values relative to PIWIL1_R4me2s (Kd 34 µM)) is “over 4 times”.
In the case of `C[C@H](NC(=O)[C@H](CCCNC(=N)N)NC(=O)CNC(=O)[C@H](CCCNC(=N)N)NC(=O)[C@H](C)NC(=O)[C@H](CCCNC(=N)N)NC(=O)[C@H](C)NC(=O)[C@H](CCCNC(=N)N)NC(=O)[C@H](C)NC(=O)[C@H](CCCNC(=N)N(C)C)NC(=O)CNC(=O)[C@@H](N)[C@@H](C)O)C(=O)N[C@@H](CCCNC(=N)N)C(=O)NCC(=O)N[C@@H](CCC(N)=O)C(=O)N[C@@H](CCC(=O)O)C(=O)O` [PIWIL1-R4me2a] (H-TG[Arg(Me2a)]ARARARGRARGQE-OH), the Kd in test [3] is > 400 µM; in test [5], > 150 µM.
As for `CN=C(NC)NCCC[C@H](NC(=O)CNC(=O)[C@@H](N)[C@@H](C)O)C(=O)N[C@@H](C)C(=O)N[C@@H](CCCNC(=N)N)C(=O)N[C@@H](C)C(=O)N[C@@H](CCCNC(=N)N)C(=O)N[C@@H](C)C(=O)N[C@@H](CCCNC(=N)N)C(=O)NCC(=O)N[C@@H](CCCNC(=N)N)C(=O)N[C@@H](C)C(=O)N[C@@H](CCCNC(=N)N)C(=O)NCC(=O)N[C@@H](CCC(N)=O)C(=O)N[C@@H](CCC(=O)O)C(=O)O` [PIWIL1-R4me2s] (H-TG[Arg(Me2s)]ARARARGRARGQE-OH), the Kd in test [3] was > 200 µM; in test [5] it was > 300 µM.
Take `C[C@H](NC(=O)[C@H](CCCNC(=N)N)NC(=O)[C@H](C)NC(=O)[C@H](CCCNC(=N)N)NC(=O)[C@H](C)NC(=O)[C@H](CCCNC(=N)N(C)C)NC(=O)CNC(=O)[C@@H](N)[C@@H](C)O)C(=O)O` [PIWIL1_R4me2a peptide (TGRme2aARARA)] (H-TG[Arg(Me2a)]ARARA-OH; N-terminus and C-terminus assumed): the Kd in test [1] was > 500 µM.
For the molecule `CN=C(NC)NCCC[C@H](NC(=O)CNC(=O)[C@H](CCCNC(=N)N)NC(=O)CNC(=O)CN)C(=O)NCC(=O)N[C@@H](CCCNC(=N)N)C(=O)NCC(=O)O` [SmD3RSDMA] (H-GGRG[Arg(Me2s)]GRG-OH), the Kd is > 500 µM in test [3] and > 400 µM in test [5].
On to “ARTK (me)1/2/3 QTARKST [Histone H3K4me1/2/3, histone H3 peptides mono-, di- or trimethylated at K4, reported in one line]”, for which the Kd in test [6], in test [2] and in test [3] was > 500 µM each time.
With “ARTKQTARK(me)1/2/3STGGKA [Histone H3K9me1/2/3, histone H3 peptides mono-, di- or trimethylated at K9, reported in one line]”, the Kd in test [6], in test [2] and in test [3] was > 500 µM throughout.
